Numbers after ± are expanded uncertainties.
Experiment: refractive index (Na D-line) (dimensionless)
Details: 293.15 K; 101.33 kPa; Liquid; Standard Abbe refractometry

SMILES	refractive index
O [water]	1.3328 ± 0.0024
CC(=O)O [acetic acid]	1.3717 ± 0.0024
CCO [ethanol]	1.3616 ± 0.0024
C=COC(C)=O [vinyl acetate]	1.3926 ± 0.0024
